One data set concerns cancer cell lines. Kind of data set: cells. As to conditions: for cytotoxicity (qualitative): cancer cell lines. In kind it is cell-based. How it is done: (§1) In addition to the screening already discussed, several of the before-described compounds and chimeras were screened against several or all of a panel of ten to twenty-five cancerous cell lines as target cells and seven "normal" cell preparations. This screening utilized a sulforhodamine B cytotoxidity assay as discussed below.
SULFORHODAMINE B CYTOTOXICITY ASSAY
a. Stock drug solutions were prepared by dissolving drug in the appropriate solvent (determined during chemical characterization studies) and sterile filtering the drug-solvent solution through a sterile 0.2μ filter unit. An aliquot was taken from each filtered drug solution and the O.D. was measured to determine the drug concentration.
f. Incubate (37° C., 5-10 percent CO2 in humidified incubator) plates for a total of 72 hours. Check plates at 24 hour intervals microscopically for signs of cytotoxicity.
(§2) IC50 values; i.e., the concentration of Compound required to kill one-half of the treated cells, were then calculated.
All other cells or cell lines were obtained from the American Type Culture Collection (ATCC) (all except CHO cells are human or mouse cancer cell lines as described by the ATC).
Tables 1 and 2 herein below provide average IC50 data from five to all ten of the above cancer cells lines for fused ring enediyne compounds disclosed herein. Those tables provide a generic structure and a description of the R group of that generic structure for each compound. Compound numbers as noted hereinbefore are also provided. Table 3 contains data for two fused-ring enediyne compounds (Compounds 47 and 120) as well as data for six chimers. Table 4 contains cancer cell and noraml cell cytotoxicity data for one select fused ring enediyne, Compound 153 against a number of "normal" cell preparations and tumor cell lines. Table 5 contains cancer cell and normal cell cytotoxicity data for another fused ring enediyne, Compound 250 against a similar panel of cells.

Another data set relates to φX174 Form I DNA. As to the kind of experiment: φX174 supercoiled DNA cleavage, agarose gel. In kind it is biochemical. How it is done:
The ethereal solution of Compound 40 produced by the LiAlH4 reduction of Compound 21 (39 mg, 0.10 mmol) was evaporated in vacuo to dryness and the residue dissolved in THF (4 mL) to give a 25 mM solution of Compound 40, assuming complete conversion of Compound 21. […]
Thus, a vial containing a 50 micromolar per base pair solution […] of the same buffer solution and 2.0 microliters of a 5.0 millimolar ethanol solution of Compound 40.
[…] A 2.0 microliter portion of glycerol loading buffer solution containing bromothymol blue indicator was added to each vial. A 10 microliter aliquot was then drawn from each. Gel electrophoresis analysis of the aliquots was performed using a 1.0 percent agarose gel with ethidium bromide run at 115 volts for 1 hour. DNA cleavage was indicated by the formation of nicked relaxed circular DNA (form II) or linearized DNA (form III), which was detected by visual inspection of the gel under 310 nanometer ultraviolet light using ethidium bromide.

A short description of another data set: Chemical stability. The data set is classed as physicochemical.
The test system of data set [1] is MOLT-4 (Leukemia) cell line. Kind of data set: cells. The data set is classed as cell-based. The settings on record: for IC50: read-out: IC50; for potency against Molt-4 relative to the other cell lines: Molt-4 vs average of other cell lines. Here is the method:
as §1, §2

Where [2] appears, read: Average data obtained from 5~10 cell lines, read-out: IC50 (average).
Setting [3] is: 5.0 mM, pH 8.5, 36 hours, 37° C.

The record followed here is patent US5281710A, “Dynemicin analogs: synthesis, methods of preparation and use” (The Scripps Research Institute, priority 1992, dated 1994).

Where two headings read alike, the source gives them in different places.

Take `COc1cccc2c1C(=O)c1c(O)c3c(c(O)c1C2=O)C[C@@](O)(C(=O)CO)C[C@@H]3O[C@H]1C[C@H](N)[C@H](O)[C@H](C)O1` [Doxorubicin, reference compound]: the 50% inhibitory concentration (IC50) (as a rule, the concentration that inhibits the measured activity by half) with cancer cell lines (cancer cells, control drugs, read-out: Range of Average IC50 Values, Cancer Cells) is 0.00016 to 0.098 µM.

As to `O=C(OCC[S+]([O-])c1ccccc1)N1c2ccccc2[C@@]23O[C@]24CCC[C@H]3C#C/C=C\C#C[C@H]14` (relative stereo) [Compound 21b], in the data set on cancer cell lines (setting [2]), the IC50 is 32 µM.

With `CC(=O)Oc1ccc2c(c1)N(C(=O)Oc1ccccc1)C1C#C/C=C\C#CC3(OC(C)=O)CCCC14OC234` (centres unmarked) [Compound 202], the DNA cleavage entry in the data set with φX174 Form I DNA (setting [3]) is on record as “inert”.

As to `CCNC1COC(OC2C(OCCOC34C#CC=CC#CC5N(C(=O)OCCS(=O)(=O)c6ccccc6)c6ccccc6C36OC56CCC4)OC(C)C(=NOC3CC(O)C(SC(=O)c4c(C)c(I)c(OC5OC(C)C(O)C(OC)C5O)c(OC)c4OC)C(C)O3)C2O)CC1OC` (centres unmarked) [Compound 126a], the concentration for half-maximal inhibition (IC50) in the data set with cancer cell lines (setting [2]) worked out at 44 µM.

For `COC12C#C/C=C\C#CC3Nc4ccccc4C14OC34CCC2` (centres unmarked) [Compound 48], the chemical stability entry in the data set “Chemical stability” was “quite stable under basic or neutral conditions”.

Consider `CCNC1COC(OC2C(OCCOC34C#CC=CC#CC5N(C(=O)OCCS(=O)(=O)c6ccccc6)c6ccccc6C36OC56CCC4)OC(C)C(=NOC3CC(O)C(SC(=O)c4c(C)c(I)c(OC5OC(C)C(O)C(OC)C5O)c(OC)c4OC)C(C)O3)C2O)CC1OC` (centres unmarked) [Compound 126b], for which the 50% inhibitory concentration (IC50) with cancer cell lines (setting [2]) is 8.7 µM.

On to `O=C(Oc1ccccc1)N1c2ccccc2C23OC24CCCC3C#Cc2ccccc2C#CC14` (centres unmarked) [Compound 76], for which the IC50 in the data set on cancer cell lines (setting [2]) came out at 7.9 µM.

On to `O=C(OCCSc1ccccc1)N1c2ccccc2[C@@]23O[C@]24CCC[C@H]3C#Cc2cc3ccccc3cc2C#C[C@H]14` (relative stereo) [Compound 88], for which, in the data set with cancer cell lines (setting [2]), the IC50 amounted to 50 µM.

In the case of `O=C(OCCS(=O)(=O)c1ccccc1)N1c2ccccc2C23OC24CCCC3(OCCO)C#C/C=C\C#CC14` (centres unmarked) [Compound 120], the IC50 with cancer cell lines (setting [2]) is 40 µM.

In the case of `COC12C#C/C=C\C#CC3N(C(=O)Oc4ccccc4)c4cc(O)ccc4C14OC34CCC2` (centres unmarked) [Compound 55], the DNA cleavage entry in the data set on φX174 Form I DNA (5 mM, pH 8.0, 24 hours) is listed as “diminished activity against DNA”.

For the molecule `CC(C)(C)C(=O)Oc1ccc2c(c1)N(C(=O)Oc1ccccc1)C1C#C/C=C\C#CC3(O)CCCC14OC234` (centres unmarked) [Compound 59a], the DNA cleavage entry with φX174 Form I DNA (setting [3]) is given as “inert”. Besides, the 50% inhibitory concentration (IC50) in data set [1] (Homo sapiens, MOLT-4, Molt-4 leukemia cell line) stood at 0.098 µM; in the data set on cancer cell lines (setting [2]), 0.79 µM.

As to `O=C(OCCS(=O)(=O)c1ccccc1)N1c2ccccc2[C@@]23O[C@]24CCC[C@H]3C#Cc2cc3ccccc3cc2C#C[C@H]14` (relative stereo) [Compound 80], in the data set with φX174 Form I DNA (basic conditions, pH 9.0), the DNA cleavage result is recorded as “exhibited DNA cleaving properties”. Further, the half-inhibitory concentration (IC50) in the data set with cancer cell lines (setting [2]) worked out at 1.6 µM. In addition, in the data set on cancer cell lines, the “cytotoxicity (qualitative)” value is “potent anticancer activity against a variety of cell lines”.

As to `CCNC1COC(OC2C(OCCOC34C#CC=CC#CC5N(C(=O)OCCS(=O)(=O)c6ccccc6)c6ccccc6C36OC56CCC4)OC(C)C(NOC3CC(O)C(SC(=O)c4c(C)c(I)c(OC5OC(C)C(O)C(OC)C5O)c(OC)c4OC)C(C)O3)C2O)CC1OC` (centres unmarked) [Compound 127b], the IC50 in data set [1] (Molt-4 leukemia cell line) was 0.0001 µM; in the data set with cancer cell lines (setting [2]) it was 7.6 µM. The “cytotoxicity (qualitative)” value in the data set on cancer cell lines was “particularly effective”.

Take `COC12C#C/C=C\C#CC3N(C(=O)OCCS(=O)(=O)c4ccccc4)c4ccccc4C14OC34CCC2` (centres unmarked) [Compound 47]: the DNA cleavage entry in the data set with φX174 Form I DNA (5 mM, pH 8.0, 24 hours) is “diminished activity against DNA”. The 50% inhibitory concentration (IC50) with cancer cell lines (setting [2]) was 5 µM.

In the case of `COC(=O)COC12C#C/C=C\C#CC3N(C(=O)Oc4ccccc4)c4ccccc4C14OC34CCC2` (centres unmarked) [Compound 24b], the concentration for half-maximal inhibition (IC50) with cancer cell lines (setting [2]) stood at 5 µM.

Consider `C1#CC2Nc3ccccc3C34OC23CCCC4C#Cc2cc3ccccc3cc21` (centres unmarked) [Compound 87a], for which, in “Chemical stability”, the chemical stability result was “stable at 25 °C”.

In the case of `CO[C@]12C#C/C=C\C#C[C@@H]3N(C(=O)Oc4ccccc4)c4ccccc4[C@]14O[C@@]34CCC2` (relative stereo) [Compound 46], the concentration for half-maximal inhibition (IC50) in the data set on cancer cell lines (setting [2]) was determined as 63 µM.

Take `O=C(Oc1ccccc1)N1c2ccccc2[C@@]23O[C@]24CCC[C@@]3(O)C#Cc2ccccc2C#C[C@H]14` (relative stereo) [Compound 74]: the IC50 in the data set on cancer cell lines (setting [2]) was 20 µM.

Consider `COc1ccc2c(c1)C13OC14CCCC3C#C/C=C\C#CC4N2C(=O)OCCS(=O)(=O)c1cccc2ccccc12` (centres unmarked) [Compound 41c], for which the “potency against Molt-4 relative to the other cell lines” value in data set [1] was 10,000 times. For the same molecule, in the data set with cancer cell lines (setting [2]), the IC50 turned out to be 0.2 µM.

On to `COc1ccc2c(c1)C13OC14CCCC3C#C/C=C\C#CC4N2C(=O)OCCS(=O)(=O)c1ccc2ccccc2c1` (centres unmarked) [Compound 41d], for which the “potency against Molt-4 relative to the other cell lines” value in data set [1] is 10,000 times. Further, the concentration for half-maximal inhibition (IC50) in the data set with cancer cell lines (setting [2]) was 0.13 µM.

`CC(=O)OC12C#C/C=C\C#CC3N(C(=O)Oc4ccccc4)c4cc(O)ccc4C14OC34CCC2` (centres unmarked) [Compound 201]: in the data set with φX174 Form I DNA (setting [3]), the DNA cleavage result is “significant DNA cleaving action”.

For `C=CS(=O)(=O)c1ccccc1` [phenyl vinyl sulfone, reference compound], the DNA cleavage entry with φX174 Form I DNA (1.0 mM) is “no DNA cleavage”; in the data set on φX174 Form I DNA (5.0 mM, pH 8.5 and 9.0, 48 hours, 37° C.), “Form II DNA”.

Regarding `O=C(Oc1ccccc1)N1c2ccccc2[C@@]23O[C@]24CCC[C@@]3(O)C#Cc2cc3ccccc3cc2C#C[C@H]14` (relative stereo) [Compound 85], the IC50 in the data set on cancer cell lines (setting [2]) was found to be 20 µM.

Turning to `COc1ccc2c(c1)C13OC14CCCC3C#C/C=C\C#CC4N2C(=O)OCCS(=O)(=O)c1ccccc1` (centres unmarked) [Compound 41b], in data set [1], the “potency against Molt-4 relative to the other cell lines” value was 10,000 times. In the data set on cancer cell lines (setting [2]), the half-maximal inhibitory concentration (IC50) is 0.25 µM.

With `O=C(OCCSc1ccccc1)N1c2ccccc2[C@@]23O[C@]24CCC[C@H]3C#Cc2ccccc2C#C[C@H]14` (relative stereo) [Compound 77], the half-maximal inhibitory concentration (IC50) in the data set with cancer cell lines (setting [2]) came to 36 µM.

On to `CCNC1COC(OC2C(OCCOC34C#CC=CC#CC5N(C(=O)OCCS(=O)(=O)c6ccccc6)c6ccccc6C36OC56CCC4)OC(C)C(NOC3CC(O)C(SC(=O)c4c(C)c(I)c(OC5OC(C)C(O)C(OC)C5O)c(OC)c4OC)C(C)O3)C2O)CC1OC` (centres unmarked) [Compound 127a], for which the concentration for half-maximal inhibition (IC50) in data set [1] (Molt-4 leukemia cell line) came out at 0.001 µM; with cancer cell lines (setting [2]), 0.14 µM. Also, in data set [1], the “potency against Molt-4 relative to the other cell lines” value is “about 100 times”. In the data set with cancer cell lines, the “cytotoxicity (qualitative)” value is listed as “particularly effective”.

As to `COc1ccc2c(c1)[C@@]13O[C@]14CCC[C@H]3C#C/C=C\C#C[C@@H]4N2C(=O)Oc1ccccc1` (relative stereo) [Compound 41a], the IC50 in the data set on cancer cell lines (setting [2]) turned out to be 20 µM.

Consider `O=C(OCCS(=O)(=O)c1ccccc1)N1c2ccccc2[C@@]23O[C@]24CCC[C@H]3C#Cc2ccccc2C#C[C@H]14` (relative stereo) [Compound 70], for which the DNA cleavage entry with φX174 Form I DNA (basic conditions, pH 9.0) is recorded as “exhibited DNA cleaving properties”. In the data set on cancer cell lines (setting [2]), the 50% inhibitory concentration (IC50) was 3.2 µM. For the same molecule, the “cytotoxicity (qualitative)” value in the data set on cancer cell lines is “potent anticancer activity against a variety of cell lines”.

Turning to `O=C(Oc1ccccc1)N1c2ccccc2C23OC24CCCC3C#Cc2cc3ccccc3cc2C#CC14` (centres unmarked) [Compound 87], the IC50 in the data set with cancer cell lines (setting [2]) came to 3.2 µM.

As for `CC(C)(C)C(=O)Oc1ccc2c(c1)N(C(=O)Oc1ccccc1)C1C#C/C=C\C#CC3CCCC14OC234` (centres unmarked) [Compound 59b], the DNA cleavage result with φX174 Form I DNA (setting [3]) is “inert”. Further, the “potency against Molt-4 relative to the other cell lines” value in data set [1] is given as 10,000 times. In addition, in the data set on cancer cell lines (setting [2]), the IC50 was 0.2 µM.

For the molecule `CC(=O)O[C@]12C#C/C=C\C#C[C@@H]3N(C(=O)Oc4ccccc4)c4cc(O)ccc4[C@]14O[C@@]34CCC2` (relative stereo) [Compound 171], the DNA cleavage result in the data set on φX174 Form I DNA (pH 8.5, 24 or 48 hours, 37° C.) was “strong activity”.

With `O=C(OCCSc1ccccc1)N1c2ccccc2[C@@]23O[C@]24CCC[C@H]3C#C/C=C\C#C[C@H]14` (relative stereo) [Compound 21a], in the data set with cancer cell lines (setting [2]), the half-maximal inhibitory concentration (IC50) turned out to be 63 µM.
